This is an account of results in article PMC3401608 (Journal of Medicinal Chemistry, 2012).

The test system of one test is postmenopausal women. The conditions noted are these: 120 mg/day, but not 60 mg/day; cited from earlier work.
Test [1] concerns the target human cloned 5-HT6 receptors (Homo sapiens, UniProt P50406). Description: 5-HT6R radioligand competition binding assays.

Where two headings read alike, the source gives them in different places.

Sequence of human cloned 5-HT6 receptors (P50406 whole entry): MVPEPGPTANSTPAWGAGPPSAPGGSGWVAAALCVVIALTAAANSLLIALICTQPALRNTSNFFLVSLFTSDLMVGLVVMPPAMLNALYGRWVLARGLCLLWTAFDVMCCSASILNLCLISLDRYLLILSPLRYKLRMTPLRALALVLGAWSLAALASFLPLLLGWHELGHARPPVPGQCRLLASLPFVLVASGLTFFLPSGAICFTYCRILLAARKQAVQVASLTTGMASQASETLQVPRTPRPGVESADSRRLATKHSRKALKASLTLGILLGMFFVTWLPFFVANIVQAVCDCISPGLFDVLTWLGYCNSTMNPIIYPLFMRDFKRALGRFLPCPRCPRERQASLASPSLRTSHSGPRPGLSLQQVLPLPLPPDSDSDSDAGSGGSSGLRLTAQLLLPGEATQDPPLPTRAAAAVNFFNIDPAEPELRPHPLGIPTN

On to `O=C(c1ccc(OCCN2CCCCC2)cc1)c1c(-c2ccc(O)cc2)sc2cc(O)ccc12` [Compound 10, raloxifene], for which the “Risk of cognitive impairment” value with postmenopausal women is “reduced risk of cognitive impairment”.

For the molecule `O=c1cc(N2CCOCC2)oc2c(-c3ccccc3)cccc12` [Compound 7], in test [1] (5-HT6R, Table 6, unit inferred), the Ki is more than 10 µM.

Consider `CC(NCCC(c1ccccc1)c1ccccc1)c1ccccc1` (stereo not drawn) [Compound 5], for which the Ki in test [1] is more than 10 µM; in test [1] (5-HT6R, Table 6, unit inferred), more than 10 µM.

`COc1ccccc1N1CCN(CCCCNC(=O)c2ccc3ccccc3c2)CC1` [Compound 9]: the Ki in test [1] is more than 10 µM; in test [1] (5-HT6R, Table 6, unit inferred) it was more than 10 µM.
